Test [1] addresses T1, human Cav2.2 channels (Homo sapiens, UniProt Q00975). Put plainly: SH-SY5Y neuroblastoma FLIPR assay of KCl-evoked calcium responses in presence of nifedipine. The test is classed as cell-based. The settings on record: for extent of inhibition of KCl-induced Ca2+ responses: in words; for inhibition at 300 µM: SH-SY5Y, read-out: % Max inhibition.
The target in test [2] is T1, human Cav2.2 channels. Particulars: HEK293 cells stably expressing human Cav2.2; n = 4–7; personal communication ref 40; read-out: IC50, block of calcium currents; cited from earlier work.
On the set-up of test [3]: method as in earlier work. Particulars: primary endpoint; cited from earlier work.
For the next test, the system named is N-type channel. Particulars: cited from earlier work.
[4] abbreviates: SH-SY5Y cells, 90 mM KCl and 5 mM CaCl2, 10 µM nifedipine, 5 min pre-treatment.
Setting [5] is: SH-SY5Y cells, 90 mM KCl and 5 mM CaCl2, 10 µM nifedipine, 5 min pre-treatment, read-out: IC50.

Several values for one entry are separate records, joined by “and”; a condition that tells them apart may be missing. Equal entries are not always repeated. Where two headings read alike, the source gives them in different places.

T1 sequence (Q00975 whole entry): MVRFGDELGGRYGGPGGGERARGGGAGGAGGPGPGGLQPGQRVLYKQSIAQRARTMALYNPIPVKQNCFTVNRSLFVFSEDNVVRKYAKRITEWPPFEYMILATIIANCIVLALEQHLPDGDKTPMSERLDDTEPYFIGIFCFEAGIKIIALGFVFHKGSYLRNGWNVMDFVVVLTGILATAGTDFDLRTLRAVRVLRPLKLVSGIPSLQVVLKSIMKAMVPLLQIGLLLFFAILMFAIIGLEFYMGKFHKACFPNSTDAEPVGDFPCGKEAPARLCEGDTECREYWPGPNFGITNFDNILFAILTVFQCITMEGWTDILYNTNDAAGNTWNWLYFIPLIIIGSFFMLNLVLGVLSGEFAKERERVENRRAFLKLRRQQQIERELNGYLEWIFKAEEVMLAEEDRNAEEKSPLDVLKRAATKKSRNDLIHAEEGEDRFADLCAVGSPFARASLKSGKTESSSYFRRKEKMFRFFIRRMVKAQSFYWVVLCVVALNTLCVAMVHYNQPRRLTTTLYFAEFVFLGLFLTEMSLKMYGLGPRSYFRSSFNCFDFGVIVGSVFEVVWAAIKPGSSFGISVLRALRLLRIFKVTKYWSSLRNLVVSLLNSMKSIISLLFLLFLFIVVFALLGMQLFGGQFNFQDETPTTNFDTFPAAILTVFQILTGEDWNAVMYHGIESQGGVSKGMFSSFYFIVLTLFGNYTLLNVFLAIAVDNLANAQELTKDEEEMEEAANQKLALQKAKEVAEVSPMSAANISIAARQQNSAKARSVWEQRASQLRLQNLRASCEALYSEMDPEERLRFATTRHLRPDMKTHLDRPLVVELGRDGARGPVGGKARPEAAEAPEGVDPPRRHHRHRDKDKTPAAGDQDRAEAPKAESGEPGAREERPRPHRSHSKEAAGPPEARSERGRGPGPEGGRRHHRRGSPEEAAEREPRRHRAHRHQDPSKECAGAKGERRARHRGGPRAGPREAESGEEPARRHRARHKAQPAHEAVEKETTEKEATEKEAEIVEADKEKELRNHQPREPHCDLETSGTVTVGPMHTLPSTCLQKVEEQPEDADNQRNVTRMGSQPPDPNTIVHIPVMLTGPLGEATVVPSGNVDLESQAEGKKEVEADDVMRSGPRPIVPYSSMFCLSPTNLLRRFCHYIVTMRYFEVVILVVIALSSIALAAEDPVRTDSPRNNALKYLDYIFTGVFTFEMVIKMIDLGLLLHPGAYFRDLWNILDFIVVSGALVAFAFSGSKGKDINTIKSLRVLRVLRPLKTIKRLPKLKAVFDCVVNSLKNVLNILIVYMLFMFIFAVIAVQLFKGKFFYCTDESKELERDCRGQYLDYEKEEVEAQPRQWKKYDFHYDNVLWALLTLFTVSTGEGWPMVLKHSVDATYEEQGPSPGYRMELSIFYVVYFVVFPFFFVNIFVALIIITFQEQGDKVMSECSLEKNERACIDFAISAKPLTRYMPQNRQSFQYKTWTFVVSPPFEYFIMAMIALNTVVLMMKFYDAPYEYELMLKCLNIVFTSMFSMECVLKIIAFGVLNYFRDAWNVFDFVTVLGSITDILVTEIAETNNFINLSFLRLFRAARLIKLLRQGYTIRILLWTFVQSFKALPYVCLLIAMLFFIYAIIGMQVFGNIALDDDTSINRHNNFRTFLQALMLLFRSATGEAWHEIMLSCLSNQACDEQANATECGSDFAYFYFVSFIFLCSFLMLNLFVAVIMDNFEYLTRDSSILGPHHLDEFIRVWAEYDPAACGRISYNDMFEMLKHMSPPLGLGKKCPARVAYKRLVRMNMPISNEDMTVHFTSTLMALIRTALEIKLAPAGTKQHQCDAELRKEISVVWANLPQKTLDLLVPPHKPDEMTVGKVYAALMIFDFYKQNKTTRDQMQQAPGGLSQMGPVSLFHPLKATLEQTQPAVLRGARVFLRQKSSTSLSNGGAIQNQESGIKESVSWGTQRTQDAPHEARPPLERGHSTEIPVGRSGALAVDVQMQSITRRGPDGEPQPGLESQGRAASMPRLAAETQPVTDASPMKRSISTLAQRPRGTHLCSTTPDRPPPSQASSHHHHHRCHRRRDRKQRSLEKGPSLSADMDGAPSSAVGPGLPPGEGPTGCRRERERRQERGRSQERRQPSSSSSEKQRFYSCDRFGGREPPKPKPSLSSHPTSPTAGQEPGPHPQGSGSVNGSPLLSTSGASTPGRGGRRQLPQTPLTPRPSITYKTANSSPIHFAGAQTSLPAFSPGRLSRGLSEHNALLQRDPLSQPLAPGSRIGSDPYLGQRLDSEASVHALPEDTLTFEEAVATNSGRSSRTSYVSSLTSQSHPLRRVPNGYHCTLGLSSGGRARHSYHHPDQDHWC
T1 sequence (P54284 whole entry partner): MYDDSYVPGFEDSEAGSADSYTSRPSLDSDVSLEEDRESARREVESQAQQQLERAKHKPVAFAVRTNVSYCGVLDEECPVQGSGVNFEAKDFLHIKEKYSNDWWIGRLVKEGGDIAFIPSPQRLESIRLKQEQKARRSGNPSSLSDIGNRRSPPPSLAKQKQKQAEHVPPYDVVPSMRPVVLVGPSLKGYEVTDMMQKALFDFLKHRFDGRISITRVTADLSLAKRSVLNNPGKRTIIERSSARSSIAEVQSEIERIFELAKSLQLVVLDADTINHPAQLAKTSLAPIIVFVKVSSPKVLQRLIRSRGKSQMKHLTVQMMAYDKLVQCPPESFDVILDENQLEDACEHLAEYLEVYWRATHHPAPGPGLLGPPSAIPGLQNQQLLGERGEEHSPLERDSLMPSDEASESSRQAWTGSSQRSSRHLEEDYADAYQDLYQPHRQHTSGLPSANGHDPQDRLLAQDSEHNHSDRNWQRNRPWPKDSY
T1 sequence (P54289 25-956 partner limits assumed): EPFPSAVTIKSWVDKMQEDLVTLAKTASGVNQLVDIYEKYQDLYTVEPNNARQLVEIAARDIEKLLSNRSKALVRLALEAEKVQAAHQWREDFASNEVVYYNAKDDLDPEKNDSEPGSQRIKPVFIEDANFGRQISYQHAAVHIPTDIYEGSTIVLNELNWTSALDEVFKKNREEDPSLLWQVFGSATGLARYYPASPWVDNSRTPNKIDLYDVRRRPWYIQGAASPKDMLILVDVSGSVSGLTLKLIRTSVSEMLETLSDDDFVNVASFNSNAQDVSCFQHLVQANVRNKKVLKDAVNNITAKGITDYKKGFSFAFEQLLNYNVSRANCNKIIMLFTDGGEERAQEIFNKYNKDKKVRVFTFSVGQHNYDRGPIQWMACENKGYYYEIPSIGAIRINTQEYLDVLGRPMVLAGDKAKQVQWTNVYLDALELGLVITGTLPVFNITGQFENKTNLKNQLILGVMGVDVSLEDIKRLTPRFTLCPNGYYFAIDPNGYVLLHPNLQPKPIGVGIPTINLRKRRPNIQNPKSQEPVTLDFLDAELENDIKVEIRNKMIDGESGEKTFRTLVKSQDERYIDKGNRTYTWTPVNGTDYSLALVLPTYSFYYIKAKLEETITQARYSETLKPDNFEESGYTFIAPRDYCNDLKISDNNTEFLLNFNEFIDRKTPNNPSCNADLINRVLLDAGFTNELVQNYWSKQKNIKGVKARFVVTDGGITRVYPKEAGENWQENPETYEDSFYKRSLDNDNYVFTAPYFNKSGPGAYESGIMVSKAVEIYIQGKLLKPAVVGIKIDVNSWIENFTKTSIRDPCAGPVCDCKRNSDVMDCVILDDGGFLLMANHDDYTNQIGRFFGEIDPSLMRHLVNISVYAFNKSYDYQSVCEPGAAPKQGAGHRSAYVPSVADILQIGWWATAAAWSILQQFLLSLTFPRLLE
T1 sequence (P54289 957-1103 partner limits assumed): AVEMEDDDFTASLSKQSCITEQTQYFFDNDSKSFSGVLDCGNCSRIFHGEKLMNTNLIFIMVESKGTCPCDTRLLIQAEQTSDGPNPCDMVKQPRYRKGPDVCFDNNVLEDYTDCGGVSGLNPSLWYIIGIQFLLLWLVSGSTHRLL

As usually defined, the IC50 is the concentration that inhibits the measured activity by half. For `NCCCOc1ccc(C(=O)Nc2ccccc2Oc2ccc(F)cc2)cc1` [5a, 4-(3-Aminopropoxy)-N-(2-(4-fluorophenoxy)phenyl)benzamide], the logIC50 result at human Cav2.2 channels [1] (setting [4]) is on record as “–4.34”. The IC50 at human Cav2.2 channels [1] (setting [5]) turned out to be 46 µM. Also, the “extent of inhibition of KCl-induced Ca2+ responses” value at human Cav2.2 channels [1] (SH-SY5Y cells) is “fully blocked”.
For `NCCCOc1ccc(C(=O)Nc2cccc(Oc3ccc(F)cc3)c2)cc1` [5b, 4-(3-Aminopropoxy)-N-(3-(4-fluorophenoxy)phenyl)benzamide] the same measures were “–4.45”, 35 µM and “fully blocked”.
The term inhibition denotes the percentage by which the read-out fell short of the control. Turning to `NCCCOc1ccc(C(=O)Nc2ccc(Oc3ccc(F)cc3)cc2)cc1` [5c, 4-(3-Aminopropoxy)-N-(4-(4-fluorophenoxy)phenyl)benzamide], the logIC50 entry on human Cav2.2 channels [1] (setting [4]) is recorded as “~–3.12”. Moreover, at human Cav2.2 channels [1] (setting [5]), the IC50 is 764 µM. In addition, the “extent of inhibition of KCl-induced Ca2+ responses” value on human Cav2.2 channels [1] (SH-SY5Y cells) is listed as “partially inhibited responses”. Moreover, on human Cav2.2 channels [1], the inhibition at 300 µM is 30%.
As to `Cl.N=C(N)NCCCOc1ccc(C(=O)Nc2ccccc2Oc2ccc(F)cc2)cc1` [6a, N-(2-(4-Fluorophenoxy)phenyl)-4-(3-guanidinopropoxy)benzamide hydrochloride], at human Cav2.2 channels [2], the IC50 was 36.3 ± 2.4 µM. The logIC50 entry at human Cav2.2 channels [1] (setting [4]) is “–3.90”. Also, at human Cav2.2 channels [1], the inhibition at 300 µM worked out at 65%.
Turning to `Cl.N=C(N)NCCCOc1ccc(C(=O)Nc2cccc(Oc3ccc(F)cc3)c2)cc1` [6b, N-(3-(4-Fluorophenoxy)phenyl)-4-(3-guanidinopropoxy)benzamide hydrochloride], the logIC50 result on human Cav2.2 channels [1] (setting [4]) is given as “–3.73”. In addition, the IC50 at human Cav2.2 channels [1] (setting [5]) was 185 µM.
As to `Cl.N=C(N)NCCCOc1ccc(C(=O)Nc2ccc(Oc3ccc(F)cc3)cc2)cc1` [6c, N-(4-(4-Fluorophenoxy)phenyl)-4-(3-guanidinopropoxy)benzamide hydrochloride], the logIC50 entry at human Cav2.2 channels [1] (setting [4]) was “–3.14”. The IC50 on human Cav2.2 channels [1] (setting [5]) is 723 µM. Moreover, the “extent of inhibition of KCl-induced Ca2+ responses” value on human Cav2.2 channels [1] (SH-SY5Y cells) is “partially inhibited responses”. For the same molecule, at human Cav2.2 channels [1], the inhibition at 300 µM is 19%.
Take `O=C(CC(c1ccccc1)c1ccccc1)N1CCN(C(c2ccccc2)c2ccccc2)CC1` [Z160]: the “outcome of Phase II clinical studies” value in test [3] was “failed to meet the primary endpoint”.
On to `N=C(N)NCCCCCCCC(=O)Nc1ccc(OCCCNC(=N)N)cc1C(=O)Nc1ccc(Oc2ccc(F)cc2)cc1` [compound 3, reference compound], for which the “activity in radioligand-displacement assay (in words)” value in the test on N-type channel is given as “most potent fluorinated analogue”. Besides, on human Cav2.2 channels [1], the “extent of inhibition of Ca2+ responses at 1 mM” value is “only partially inhibited responses”, the logIC50 entry was “~–2.84” and the inhibition at 300 µM was 15%. At human Cav2.2 channels [1] (IC50), the IC50 is ~1450 µM and 1450 µM.
In the case of `NCCCCCCCC(=O)Nc1ccc(OCCCN)cc1C(=O)Nc1ccc(Oc2ccc(F)cc2)cc1` [compound 4], in the test on N-type channel, the “activity in radioligand-displacement assay (in words)” value is listed as “comparatively weak activity”.

Values taken from PMC4413198, “Inhibition of N-Type Calcium Channels by Fluorophenoxyanilide Derivatives” (Marine Drugs, 2015).
